Results from patent US20040116420A1 (priority 2001, published 2004).

Legend:
HSV-1 = experiment: Antiviral activity, HSV-1 in Vero cells, plaque method; assay type: cell-based; conditions: 90% inhibition of plaque formation
In short: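 This is a virus-yield read-out. The culture medium was frozen at −80° C and thawed, and the plaques it formed were counted. It came from Vero monolayers infected with 50,000 pfu HSV-1 and then exposed to the compound for 20 h at 37° C. EC90 is the concentration inhibiting 90% of plaque formation relative to the untreated infected control.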

HSV-1 protease = molecular target: T1, HSV-1 protease (Human herpesvirus 1, UniProt P10210); experiment: Enzymatic assay for HSV-1 protease (assembly) inhibitor, fluorescence polarization; assay type: biochemical; conditions: read-out: HSV-1 Enzyme inhibition IC50
T1 construct: 6xHis (N); made in house; host or cells: baculovirus expression system
T1 sequence (P10210 1-247): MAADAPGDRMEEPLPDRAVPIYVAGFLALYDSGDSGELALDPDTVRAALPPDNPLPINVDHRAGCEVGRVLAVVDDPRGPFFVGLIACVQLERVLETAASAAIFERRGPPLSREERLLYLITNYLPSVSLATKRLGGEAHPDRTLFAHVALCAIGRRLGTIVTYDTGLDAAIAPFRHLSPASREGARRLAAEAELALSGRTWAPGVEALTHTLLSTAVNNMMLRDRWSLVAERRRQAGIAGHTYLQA
In short: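 Fluorescence polarization read-out: after avidin stop, cleavage of a biotinylated DTAF-labelled release-site peptide by recombinant N-His6 HSV-1 protease was compared with no-inhibitor wells. Enzyme and compound were preincubated 30 min, then substrate reacted 60 min, all at room temperature, pH 7.4 citrate buffer with TCEP.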

Vero cells = experiment: Cytotoxicity, Vero cells, Alamar Blue; assay type: cell-based; conditions: 25 μM, 20 hours
In short: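 Living-cell ratio versus untreated control was read by Alamar Blue absorbance after about 6 h of dye incubation. Before that, Vero cells had received 25 μM test compound in 2% FBS-DMEM for 20 hours at 37 °C under 5% CO2.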

[1] = Human alphaherpesvirus 1, 20 hours

| SMILES | EC90 (HSV-1; [1]) [µM] | IC50 (HSV-1 protease) [µM] | Cell viability (% of control) (Vero cells) [%] | EC90 (HSV-1; 20 hours) [µM] |
| --- | --- | --- | --- | --- |
| Cc1c(NC(=O)OC(C)(C)C)ccc2nc(N[C@H](C(=O)N(C)CCc3ccncc3)C(C)(C)C)oc(=O)c12 [Compound No.52, (2-{2,2-Dimethyl-1S-[methyl-(2-pyridin-4-yl-ethyl)-carbamoyl]-propylamino}-5-methyl-4-oxo-4H-benzo[d][1,3]oxazin-6-yl)-carbamic acid tert-butyl ester] | 6 | 49 | 64.5 |  |
| Cc1c(NC(=O)OC(C)(C)C)ccc2nc(N[C@H](C(=O)N(C)Cc3ccccn3)C(C)C)oc(=O)c12 [Compound No.61, {5-Methyl-2-[2-methyl-1S-(methyl-pyridin-2-ylmethyl-carbamoyl)-propylamino]-4-oxo-4H-benzo[d][1,3]oxazin-6-yl}-carbamic acid tert-butyl ester] | 4.7 | 3.3 | 107.0 |  |
| Cc1c(NC(=O)OC(C)(C)C)ccc2nc(N[C@@H](CC(C)C)C(=O)NCc3ccncc3)oc(=O)c12 [Compound No.38, (5-Methyl-2-{3-methyl-1S-[(pyridin-4-ylmethyl)-carbamoyl]-butylamino}-4-oxo-4H-benzo[d][1,3]oxazin-6-yl)-carbamic acid tert-butyl ester] | > 25 | 10.1 | 105.0 |  |
| Cc1c(NC(=O)OC(C)(C)C)ccc2nc(N3Cc4ccccc4C[C@H]3C(=O)NCCc3ccccn3)oc(=O)c12 [Compound No.97, {5-Methyl-4-oxo-2-[3S-(2-pyridin-2-yl-ethylcarbamoyl)-3,4-dihydro-1H-isoquinolin-2-yl]-4H-benzo[d][1,3]oxazin-6-yl}-carbamic acid tert-butyl ester] | 11 | 3.3 | 51.3 |  |
| Cc1c(NC(=O)OC(C)(C)C)ccc2nc(N3CCC[C@H]3C(=O)NCc3ccncc3)oc(=O)c12 [Compound No.88, (5-Methyl-4-oxo-2-{2S-[(pyridin-4-ylmethyl)-carbamoyl]-pyrrolidin-1-yl}-4H-benzo[d][1,3]oxazin-6-yl)-carbamic acid tert-butyl ester] |  | 2.7 | 74.1 | > 12.5 |
| Cc1c(NC(=O)OC(C)(C)C)ccc2nc(NC(C)(C)C(=O)NCCc3ccccn3)oc(=O)c12 [Compound No.35, {5-Methyl-2-[1-methyl-1-(2-pyridin-2-ylethylcarbamoyl)-ethylamino]-4-oxo-4H-benzo[d][1,3]oxazin-6-yl}-carbamic acid tert-butyl ester] | > 25 | 1.6 | 110.0 |  |
| Cc1c(NC(=O)OC(C)(C)C)ccc2nc(N[C@@H](CC(C)C)C(=O)NCc3cccnc3)oc(=O)c12 [Compound No.37, (5-Methyl-2-{3-methyl-1S-[(pyridin-3-ylmethyl)-carbamoyl]-butylamino}-4-oxo-4H-benzo[d][1,3]oxazin-6-yl)-carbamic acid tert-butyl ester] | 15 | 4.6 | 105.0 |  |
| Cc1c(NC(=O)OC(C)(C)C)ccc2nc(N[C@@H](CC(C)C)C(=O)N(C)CCc3ccncc3)oc(=O)c12 [Compound No.54, (5-Methyl-2-{3-methyl-1S-[methyl-(2-pyridin-4-yl-ethyl)-carbamoyl]-butylamino}-4-oxo-4H-benzo[d][1,3]oxazin-6-yl)-carbamic acid tert-butyl ester] | 6.2 | 1.8 | 62.8 |  |
| Cc1c(NC(=O)OC(C)(C)C)ccc2nc(N[C@@H](C)C(=O)N(C)CCc3ccccn3)oc(=O)c12 [Compound No.43, (5-Methyl-2-{1S-[methyl-(2-pyridin-2-yl-ethyl)-carbamoyl]-ethylamino}-4-oxo-4H-benzo[d][1,3]oxazin-6-yl)-carbamic acid tert-butyl ester] | 9.1 | 0.7 | 104.0 |  |

The next lines start with results.

| EC90 (HSV-1; [1]) [µM] | IC50 (HSV-1 protease) [µM] | SMILES | Cell viability (% of control) (Vero cells) [%] | EC90 (HSV-1; 20 hours) [µM] |
| --- | --- | --- | --- | --- |
| > 12.5 | 0.7 | Cc1c(NC(=O)CCCNC(=O)c2ccccn2)ccc2nc(NC(C)(C)C(=O)N(C)CCc3ccccn3)oc(=O)c12 [Compound No.221, Pyridine-2-carboxylic acid [3-(5-methyl-2-{1-methyl-1-[methyl-(2-pyridin-2-yl-ethyl)-carbamoyl]-ethylamino}-4-oxo-4H-benzo[d][1,3]oxazin-6-ylcarbamoyl)-propyl]-amide] | 105.3 |  |
| 3.6 | 1.7 | CCCCc1ccc(C(=O)Nc2ccc3nc(NC(C)(C)C(=O)N(C)CCc4ccccn4)oc(=O)c3c2C)cc1 [Compound No.167, 4-Butyl-N-(5-methyl-2-{1-methyl-1-[methyl-(2-pyridin-2-yl-ethyl)-carbamoyl]-ethylamino}-4-oxo-4H-benzo[d][1,3]oxazin-6-yl)-benzamide] | −6.1 |  |
| 8.4 | > 20 | Cc1c(NC(=O)OC(C)(C)C)ccc2nc(N3Cc4ccccc4C[C@H]3C(=O)N(C)CCc3ccncc3)oc(=O)c12 [Compound No.101, (5-Methyl-2-{3S-[methyl-(2-pyridin-4-yl-ethyl)-carbamoyl]-3,4-dihydro-1H-isoquinolin-2-yl}-4-oxo-4H-benzo[d][1,3]oxazin-6-yl)-carbamic acid tert-butyl ester] | 45.5 |  |
| 11.3 | 1.1 | Cc1c(NC(=O)CCC2CCCCC2)ccc2nc(NC(C)(C)C(=O)N(C)CCc3ccccn3)oc(=O)c12 [Compound No.160, 2-[6-(3-Cyclohexyl-propionylamino)-5-methyl-4-oxo-4H-benzo[d][1,3]oxazin-2-ylamino]-2,N-dimethyl-N-(2-pyridin-2-yl-ethyl)-propionamide] | 13.0 |  |
| 11.8 | 6.7 | Cc1c(NC(=O)c2ccc3ccccc3c2)ccc2nc(NC(C)(C)C(=O)N(C)CCc3ccccn3)oc(=O)c12 [Compound No.194, Naphthalene-2-carboxylic acid (5-methyl-2-{1-methyl-1-[methyl-(2-pyridin-2-yl-ethyl)-carbamoyl]-ethylamino}-4-oxo-4H-benzo[d][1,3]oxazin-6-yl)-amide] | 71.8 |  |
| 6.2 | 2.6 | Cc1c(NC(=O)c2ccc(Cl)cc2)ccc2nc(NC(C)(C)C(=O)N(C)CCc3ccccn3)oc(=O)c12 [Compound No.153, 4-Chloro-N-(5-methyl-2-{1-methyl-1-[methyl-(2-pyridin-2-yl-ethyl)-carbamoyl]-ethylamino}-4-oxo-4H-benzo[d][1,3]oxazin-6-yl)-benzamide] | 48.6 |  |
| > 12.5 | 2.5 | Cc1cc(C(=O)Nc2ccc3nc(NC(C)(C)C(=O)N(C)CCc4ccccn4)oc(=O)c3c2C)c(C(F)(F)F)o1 [Compound No.175, 5-Methyl-2-trifluoromethyl-furan-3-carboxylic acid (5-methyl-2-{1-methyl-1-[methyl-(2-pyridin-2-yl-ethyl)-carbamoyl]-ethylamino}-4-oxo-4H-benzo [d][1,3]oxazin-6-yl)-amide] | 99.4 |  |
| 5.6 | 1.2 | Cc1c(NC(=O)c2ccc(C(F)(F)F)cc2)ccc2nc(NC(C)(C)C(=O)N(C)CCc3ccccn3)oc(=O)c12 [Compound No.146, N-(5-Methyl-2-{1-methyl-1-[methyl-(2-pyridin-2-yl-ethyl)-carbamoyl]-ethylamino}-4-oxo-4H-benzo[d][1,3]oxazin-6-yl)-4-trifluoromethyl-benzamide] | 18.0 |  |
| > 12.5 | 2.9 | Cc1c(NC(=O)OC(C)(C)C)ccc2nc(N3CCCC[C@H]3C(=O)NCCc3ccccn3)oc(=O)c12 [Compound No.105, {5-Methyl-4-oxo-2-[2S-(2-pyridin-2-ylethylcarbamoyl)-piperidin-1-yl]-4H-benzo[d][1,3]oxazin-6-yl}-carbamic acid tert-butyl ester] | 55.6 |  |
| 10.6 | 1.5 | Cc1c(NC(=O)c2ccc(F)cc2)ccc2nc(NC(C)(C)C(=O)N(C)CCc3ccccn3)oc(=O)c12 [Compound No.149, 4-Fluoro-N-(5-methyl-2-{1-methyl-1-[methyl-(2-pyridin-2-yl-ethyl)-carbamoyl]-ethylamino}-4-oxo-4H-benzo[d][1,3]oxazin-6-yl)-benzamide] | 65.4 |  |
| > 12.5 | 4.2 | COCC(=O)Nc1ccc2nc(NC(C)(C)C(=O)N(C)CCc3ccccn3)oc(=O)c2c1C [Compound No.137, 2-[6-(2-Methoxy-acetylamino)-5-methyl-4-oxo-4H-benzo[d][1,3]oxazin-2-ylamino]-2,N-dimethyl-N-(2-pyridin-2-yl-ethyl)-propionamide] | 98.2 |  |
| ≥ 12.5 | 2.1 | Cc1c(NC(=O)C(C)C)ccc2nc(NC(C)(C)C(=O)N(C)CCc3ccccn3)oc(=O)c12 [Compound No.195, 2-(6-Isobutyrylamino-5-methyl-4-oxo-4H-benzo[d][1,3]oxazin-2-ylamino)-2,N-dimethyl-N-(2-pyridin-2-yl-ethyl)-propionamide] | 99.7 |  |
